In ChEMBL document CHEMBL1208684 (Eur J Med Chem, 2010):
The source made the active and inactive calls. The calls are words filed in the database; no cut-off is given here.

Tests used:
[1] = Antiproliferative activity against multi drug-resistant rat LT12 cells after 48 hrs by XTT assay; assay type: functional, cell-based; settings: LT12, 48 h
L1210 [2] = test: Antiproliferative activity against vincristine-resistant mouse L1210 cells after 48 hrs by XTT assay; assay type: functional, cell-based; settings: L1210, 48 h
[3] = Antiproliferative activity against rat LT12 cells after 48 hrs by XTT assay; assay type: functional, cell-based; settings: LT12, 48 h
K562 = test: Antiproliferative activity against human K562 cells after 48 hrs; assay type: functional, cell-based; settings: K562, 48 h
Tubulin = Tubulin (Sus scrofa, UniProt P02554+P02550); test: Inhibition of pig brain tubulin polymerization after 30 mins by turbidimetry
[4] = Cell cycle arrest in human KB/HeLa cells assessed as accumulation at G2/M phase after 24 hrs using propidium iodide staining by FACS analysis; assay type: functional, cell-based
P388 [5] = test: Antiproliferative activity against mouse P388 cells after 48 hrs by XTT assay; assay type: functional, cell-based; settings: P388, 48 h
NCI-H460 = test: Antiproliferative activity against human NCI-H460 cells after 48 hrs by XTT assay; assay type: functional, cell-based; settings: NCI-H460, 48 h
[6] = Antiproliferative activity against human KB/HeLa cells after 48 hrs by XTT assay; assay type: functional, cell-based
RKO [7] = test: Antiproliferative activity against human RKO cells after 48 hrs by XTT assay; assay type: functional, cell-based
L1210 [8] = test: Antiproliferative activity against mouse L1210 cells after 48 hrs by XTT assay; assay type: functional, cell-based; settings: L1210, 48 h
SF-268 = test: Antiproliferative activity against human SF268 cells after 48 hrs by XTT assay; assay type: functional, cell-based; settings: SF-268, 48 h
[9] = Displacement of [3H]colchicine from biotin-labeled tubulin after 2 hrs by scintillation proximity assay
P388 [10] = test: Antiproliferative activity against adriamycin-resistant mouse P388 cells after 48 hrs by XTT assay; assay type: functional, cell-based; settings: P388, 48 h
RKO [11] = test: Antiproliferative activity against human RKO cells expressing p27Kip1 after 48 hrs by XTT assay; assay type: functional, cell-based
[12] = Displacement of [3H]paclitaxel from biotin-labeled tubulin after 2 hrs by scintillation proximity assay
Tubulin (Sus scrofa) = Tubulin (Sus scrofa) (UniProt P02554+P02550); test: Ratio of compound IC50 to colchicine IC50 for inhibition of pig brain tubulin polymerization
Tubulin (Sus scrofa), sequence (P02550 whole entry, looked up): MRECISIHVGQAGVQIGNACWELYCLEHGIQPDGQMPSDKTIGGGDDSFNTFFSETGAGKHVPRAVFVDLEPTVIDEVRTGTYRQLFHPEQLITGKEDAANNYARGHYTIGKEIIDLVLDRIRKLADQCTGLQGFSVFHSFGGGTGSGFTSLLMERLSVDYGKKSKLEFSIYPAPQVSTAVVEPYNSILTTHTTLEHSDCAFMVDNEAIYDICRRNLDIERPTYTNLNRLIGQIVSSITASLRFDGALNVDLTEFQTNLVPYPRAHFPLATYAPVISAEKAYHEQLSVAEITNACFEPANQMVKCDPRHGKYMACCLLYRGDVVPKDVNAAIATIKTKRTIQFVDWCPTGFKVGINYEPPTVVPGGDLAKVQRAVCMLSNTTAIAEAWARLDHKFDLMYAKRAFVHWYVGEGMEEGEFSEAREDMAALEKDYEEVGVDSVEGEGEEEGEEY
Tubulin (Sus scrofa), sequence (P02554 whole entry, looked up): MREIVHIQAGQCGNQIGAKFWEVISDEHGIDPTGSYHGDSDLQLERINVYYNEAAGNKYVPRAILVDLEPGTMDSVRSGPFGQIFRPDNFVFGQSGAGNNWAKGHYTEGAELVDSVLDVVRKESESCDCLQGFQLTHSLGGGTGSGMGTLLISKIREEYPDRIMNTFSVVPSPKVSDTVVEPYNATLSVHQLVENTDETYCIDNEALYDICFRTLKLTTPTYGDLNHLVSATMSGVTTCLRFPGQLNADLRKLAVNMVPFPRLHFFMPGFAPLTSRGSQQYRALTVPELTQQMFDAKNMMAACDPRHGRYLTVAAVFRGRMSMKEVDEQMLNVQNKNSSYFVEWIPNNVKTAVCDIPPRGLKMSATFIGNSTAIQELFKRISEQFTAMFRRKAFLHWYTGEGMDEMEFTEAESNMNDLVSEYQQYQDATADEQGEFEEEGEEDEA

SK-OV-3 = test: Antiproliferative activity against human SKOV3 cells after 48 hrs by XTT assay; assay type: functional, cell-based; settings: SK-OV-3, 48 h

Structure (SMILES) | IC50 (K562) | IC50 (Tubulin) | also measured
CC[C@]1(O)C[C@@H]2CN(CCc3c([nH]c4ccccc34)[C@@](C(=O)OC)(c3cc4c(cc3OC)N(C)[C@H]3[C@@](O)(C(N)=O)[C@H](O)[C@]5(CC)C=CCN6CC[C@]43[C@@H]65)C2)C1 [VINDESINE] | – | – | IC50 [1]: 260 nM; IC50 (L1210 [2]): > 5000 nM; IC50 [3]: 1 nM
COc1ccc(CC2c3cccc(Cl)c3C(=O)c3cccc(Cl)c32)cc1O (centres undefined) | 5100 nM | – | –
CC[C@]1(O)C[C@H]2CN(CCc3c([nH]c4ccccc34)[C@@](C(=O)OC)(c3cc4c(cc3OC)N(C=O)[C@H]3[C@@](O)(C(=O)OC)[C@H](OC(C)=O)[C@]5(CC)C=CCN6CC[C@]43[C@@H]65)C2)C1 [VINCRISTINE] | – | – | EC50 [4]: 2.4 nM
COc1cc(C=C2c3cccc(Cl)c3C(=O)c3c(Cl)cccc32)ccc1O | 5000 nM | 6800 nM | –
O=C1c2cccc(Cl)c2C(Cc2ccc([N+](=O)[O-])cc2)c2cccc(Cl)c21 (centres undefined) | > 15000 nM | – | –
COc1cc(CC2c3cccc(Cl)c3C(=O)c3cccc(Cl)c32)cc(OC)c1OC (centres undefined) | > 15000 nM | – | –
O=C1c2cccc(Cl)c2C(Cc2ccc(Cl)cc2)c2cccc(Cl)c21 (centres undefined) | > 15000 nM | – | –
CC(=O)O[C@H]1C(=O)[C@@]2(C)[C@H]([C@H](OC(=O)c3ccccc3)[C@]3(O)C[C@H](OC(=O)[C@H](O)[C@@H](NC(=O)c4ccccc4)c4ccccc4)C(C)=C1C3(C)C)[C@]1(OC(C)=O)CO[C@@H]1C[C@@H]2O [PACLITAXEL] | – | – | IC50 [1]: 400 nM; IC50 [6]: 10 nM; IC50 (L1210 [2]): > 5000 nM; EC50 [4]: 49 nM; IC50 (P388 [10]): > 5000 nM; IC50 (RKO [11]): > 3000 nM
CC(=O)Oc1ccc(C(=O)/C=C2\c3cccc(Cl)c3C(=O)c3cccc(Cl)c32)cc1 | 3400 nM | 410 nM | –
COc1cc(C=C2c3cccc(O)c3C(=O)c3c(O)cccc32)cc(OC)c1OC | 2600 nM | > 10000 nM | –
O=C1c2cccc(Cl)c2/C(=C\c2ccccc2)c2cccc(Cl)c21 | > 30000 nM | – | –
COc1cccc(C=C2c3cccc(Cl)c3C(=O)c3c(Cl)cccc32)c1O | 5000 nM | > 2000 nM | –
COc1ccc(/C=C2/c3cccc(Cl)c3C(=O)c3cccc(Cl)c32)c(OC)c1OC | 17300 nM | – | –
COc1cc(/C=C2\c3cccc(Cl)c3C(=O)c3cccc(Cl)c32)cc(OC)c1OC | 18000 nM | – | –
COc1cccc(CC2c3cccc(Cl)c3C(=O)c3cccc(Cl)c32)c1 (centres undefined) | > 15000 nM | – | –
COC(=O)Nc1nc2cc(C(=O)c3cccs3)ccc2[nH]1 [NOCODAZOLE] | – | – | IC50 [1]: 70 nM; IC50 [6]: 140 nM; IC50 [3]: 40 nM; EC50 [4]: 91 nM; IC50 (RKO [11]): > 10000 nM
COc1cc2c(c(OC)c1OC)-c1ccc(OC)c(=O)cc1[C@@H](NC(C)=O)CC2 [COLCHICINE] | – | – | IC50 [6]: 30 nM; EC50 [4]: 14 nM; IC50 (RKO [11]): > 10000 nM
O=C1c2c(O)cccc2C(=Cc2ccc(O)c(O)c2)c2cccc(O)c21 | 2600 nM | – | –
COc1ccc(CC2c3cccc(Cl)c3C(=O)c3c(Cl)cccc32)cc1 | > 80000 nM | > 2000 nM | –
O=C1c2cccc(Cl)c2C(Cc2ccccc2)c2cccc(Cl)c21 (centres undefined) | > 15000 nM | – | –
O=C1c2c(O)cccc2C(=Cc2ccccc2)c2cccc(O)c21 | 2300 nM | > 10000 nM | –
O=C1c2cccc(Cl)c2/C(=C/c2ccccc2)c2cccc(Cl)c21 | > 30000 nM | – | –
COc1ccc(CC2c3cccc(Cl)c3C(=O)c3cccc(Cl)c32)cc1 (centres undefined) | 13000 nM | – | –
COc1cc(C=C2c3cccc(Cl)c3C(=O)c3c(Cl)cccc32)cc(OC)c1OC | 10000 nM | > 10000 nM | –
O=C1c2c(O)cccc2C(=Cc2ccc(O)cc2)c2cccc(O)c21 | 2000 nM | – | –

Continued, in another order:

IC50 (K562) | IC50 (Tubulin) | Structure (SMILES) | also measured
270 nM | 380 nM | COc1cc(/C=C2/c3cccc(Cl)c3C(=O)c3cccc(Cl)c32)ccc1O | –
1600 nM | 1200 nM | COc1ccc(CC2c3cccc(Cl)c3C(=O)c3c(Cl)cccc32)cc1O | –
720 nM | 1620 nM | COc1cc(C(=O)C=C2c3cccc(Cl)c3C(=O)c3c(Cl)cccc32)cc(OC)c1OC | –
100 nM | 360 nM | COc1ccc(C=C2c3cccc(Cl)c3C(=O)c3c(Cl)cccc32)c(OC)c1O | IC50 (P388 [5]): 320 nM; IC50 (NCI-H460): 170 nM; IC50 [1]: 170 nM; IC50 [6]: 130 nM; IC50 (RKO [7]): 160 nM; IC50 (L1210 [8]): 350 nM; IC50 (L1210 [2]): 230 nM; IC50 (SF-268): 140 nM; IC50 [3]: 370 nM; EC50 [4]: 111 nM; IC50 [9]: 1170 nM; IC50 (P388 [10]): 460 nM; IC50 (RKO [11]): > 9000 nM; Activity [12]: inactive; Ratio IC50 (Tubulin (Sus scrofa)): 4; IC50 (SK-OV-3): 160 nM
1420 nM | > 2000 nM | COc1ccc(C=C2c3cccc(OC)c3C(=O)c3c(OC)cccc32)cc1 | –
290 nM | 1700 nM | O=C(/C=C1\c2cccc(Cl)c2C(=O)c2cccc(Cl)c21)c1ccccc1 | –
1600 nM | – | O=C(/C=C1\c2cccc(Cl)c2C(=O)c2cccc(Cl)c21)c1ccc(Cl)cc1 | –
250 nM | 360 nM | COc1ccc(C=C2c3cccc(Cl)c3C(=O)c3c(Cl)cccc32)cc1O | IC50 (P388 [5]): 390 nM; IC50 (NCI-H460): 210 nM; IC50 [1]: 290 nM; IC50 [6]: 140 nM; IC50 (RKO [7]): 160 nM; IC50 (L1210 [8]): 510 nM; IC50 (L1210 [2]): 300 nM; IC50 (SF-268): 170 nM; IC50 [3]: 630 nM; EC50 [4]: 118 nM; IC50 [9]: 1380 nM; IC50 (P388 [10]): 640 nM; IC50 (RKO [11]): > 9000 nM; Activity [12]: inactive; Ratio IC50 (Tubulin (Sus scrofa)): 4; IC50 (SK-OV-3): 140 nM
220 nM | 530 nM | COc1ccc(C(=O)/C=C2\c3cccc(Cl)c3C(=O)c3cccc(Cl)c32)cc1 | –
2000 nM | 4000 nM | COc1ccc(C=C2c3cccc(O)c3C(=O)c3c(O)cccc32)cc1 | –
240 nM | 690 nM | COc1ccc(C(=O)/C=C2\c3cccc(Cl)c3C(=O)c3cccc(Cl)c32)cc1OC | –
930 nM | 730 nM | COc1ccc(C(=O)C=C2c3cccc(Cl)c3C(=O)c3c(Cl)cccc32)cc1 | –
2000 nM | 1660 nM | COc1cc(C=C2c3cccc(Cl)c3C(=O)c3c(Cl)cccc32)cc(OC)c1O | –
1900 nM | – | O=C(/C=C1\c2cccc(Cl)c2C(=O)c2cccc(Cl)c21)c1ccc([N+](=O)[O-])cc1 | –
610 nM | 870 nM | COc1ccc(C=C2c3cccc(Cl)c3C(=O)c3c(Cl)cccc32)cc1 | –
210 nM | 420 nM | COc1ccc(/C=C2\c3cccc(Cl)c3C(=O)c3cccc(Cl)c32)cc1O | –
1300 nM | 520 nM | COc1ccc(/C=C2/c3cccc(Cl)c3C(=O)c3cccc(Cl)c32)cc1 | –
250 nM | 690 nM | COc1cccc(C(=O)/C=C2\c3cccc(Cl)c3C(=O)c3cccc(Cl)c32)c1 | –
2000 nM | > 10000 nM | COc1ccc(C=C2c3cccc(O)c3C(=O)c3c(O)cccc32)cc1OC | –
500 nM | 1600 nM | COc1ccc(C=C2c3cccc(Cl)c3C(=O)c3c(Cl)cccc32)c(O)c1 | –
1700 nM | > 10000 nM | O=C1c2c(O)cccc2C(=Cc2ccc([N+](=O)[O-])cc2)c2cccc(O)c21 | –
1400 nM | 690 nM | COc1ccc(/C=C2\c3cccc(Cl)c3C(=O)c3cccc(Cl)c32)cc1 | –
1700 nM | 510 nM | O=C(/C=C1\c2cccc(Cl)c2C(=O)c2cccc(Cl)c21)c1ccc(Br)cc1 | –
1700 nM | – | O=C1c2c(O)cccc2C(=Cc2ccc(C(F)(F)F)cc2)c2cccc(O)c21 | –
1500 nM | 1930 nM | COc1ccc(C=C2c3cccc(O)c3C(=O)c3c(O)cccc32)cc1O | –
